Like-named read-outs stand apart in the source and are kept apart here.
Legend:
[1] = target: MBHA DNA substrate; assay: Fluorescent intercalation displacement (FID) assay, ethidium bromide; assay type: binding; conditions: for EC50: FID, mean ± SD, read-out: DNA Binding (Ethidium Bromide) EC50
Method: Fluorescent intercalation displacement (FID) assays (Boger, et al. (2001) J. Am. Chem. Soc. 123:5878-5891) were used to measure the ability of a compound to bind the MBHA substrate. The concentration at which half the ethidium bromide is displaced (EC50) was determined using the different conditions as above to more closely mimic the conditions of a standard helicase assay. Each 100 μL reaction contained 25 mM MOPS pH 6.5, 0.16 μM MBHA DNA substrate (lacking Cy5 and IBQ-RQ modifications), 2 μM ethidium bromide, and various concentrations of test compound. Fluorescence of ethidium bromide was monitored using excitation and emission wavelengths of 545 and 595 nm, respectively, on a Cary Eclipse fluorescence spectrophotometer in white 96-well plates. The amount of ethidium bromide-DNA complex fluorescence was used to estimate the ability of compounds to bind DNA, and therefore displace the fluorescent intercalator (ethidium bromide).
In Equation 4, Fc is the fluorescence in the presence of the compound, F(−) is the average DMSO-only negative controls, and F(+) is the average positive controls (100 μM berenil). EC50 values were from a normalized dose-response curve.
These twelve hits were then subjected to a counterscreen designed to independently identify DNA binding compounds using a modified fluorescent intercalator displacement (FID) assay (Boger, et al. (2001) supra). The FID assay used ethidium bromide to judge a compound's ability to bind DNA and was based on the assumption that a DNA binding compound would displace a fluorescent DNA intercalating agent, leading to an observable decrease in observed fluorescence. Compounds were tested at 1.5 μM in the presence of the 25 base pair substrate used in the helicase assays.

[2] = target: T1, HCV NS3 helicase NS3h_1b(con1) (Hepatitis C virus genotype 1b, UniProt Q9WMX2); assay: MBHA screen of NCI mechanistic set library at 20 μM (percent inhibition, compound interference); assay type: biochemical; conditions: compounds at 20 μM; for Inh. (%) (Inhibition): calculated from Equation 1
T1 construct: truncated C-terminally His-tagged NS3 proteins lacking the N-terminal protease, called NS3h; His-tag (C); made in house
In short: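 Molecular beacon-based DNA unwinding assay; compounds screened at 20 μM in triplicate, with DMSO-only negative and 500 nM dT20 positive controls. Fluorescence (ex 643/em 670 nm) was read before and 30 min after adding ATP to 1 mM. Percent inhibition came from the change relative to DMSO controls; interference from pre-ATP fluorescence versus DMSO controls.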

[3] = target: T2, NS3h_1b(con1) (Hepatitis C virus genotype 1b, UniProt Q9WMX2); assay: ATP hydrolysis assay (malachite green); assay type: biochemical
T2 construct: truncated C-terminally His-tagged NS3 proteins lacking the N-terminal protease, called NS3h; His-tag (C); made in house
Method: A modified “malachite green” assay (Lanzetta, et al. (1979) Anal. Biochem. 100:95-97) was used to measure ATP hydrolysis. Fifty μL reactions contained 25 mM MOPS pH 6.5, 5 mM MgCl2, 2 mM ATP, 5 μg/mL BSA, 0.01% (v/v) TWEEN 20, 0.05 mM DTT, and poly(U) RNA (Saint Louis, Mo.) as indicated. Reactions were initiated by adding NS3h_1b(con1). Reactions were incubated for 15 minutes at 37° C. then stopped by mixing 40 μL of the reaction into 200 μL of the malachite green reagent (3 volumes 0.045% (w/v) malachite green, 1 volume 4.2% ammonium molybdate in 4N HCl, 0.05 volume of 20% TWEEN 20). […] Absorbance at 630 nm was proportional to the concentration of phosphate produced; free phosphate produced was measured against a standard curve.

[4] = target: T1, HCV NS3 helicase NS3h_1b(con1); assay: biochemical; assay type: biochemical, hepatitis C virus genotype 1b(con1)
Excerpt: All oligonucleotides were purchased from Integrated DNA Technologies (IDT, Coralville, Iowa). The partially duplex DNA substrates used in MBHAs consisted of a helicase substrate forming 25 base pairs and consists of a 45-mer bottom strand 5′-GCTCCCCGTTCATCGATTGGGGAGC(T)20-3′ (SEQ ID NO:1) and the 25-mer HCV top strand 5′-Cy5-GCTCCCCAATCGATGAACGGGGAGC-IBRQ-3′ (SEQ ID NO:2). The 19 base pair RNA substrate used in MBHAs was composed of a 39 nucleotide long bottom strand 5′-AGU GCC UUG ACG AUA CAG C(U)20-3′ (SEQ ID NO:3) and the 24 nucleotide long top strand 5′-Tye^665-AGUGCGCUGUAUCGUCAAGGCACU-IBRQSp-3′ (SEQ ID NO:4). Underlined areas denote hairpin-forming regions. DNA and RNA substrates were annealed and purified as described previously (Belon & Frick (2008) BioTechniques 45:433-40, 442).
The cloning, expression, and purification of His-tagged recombinant HCV NS3 protein have been described previously (Lam, et al. (20030 J. Virol. 77:3950-61; Heck, et al. (2008) Antimicrob. Agents Chemother. 52:1901-11; Frick et al. (2010) Methods Mol. Biol. 587:223-233; Belon, et al. & Frick (2009) J. Mol. Biol. 388:851-864).
All molecular beacon-based helicase assays (MBHAs) were performed according to known methods (Belon & Frick (2008) supra; Belon & Frick (2009) supra). […] In each flat, black 384-well plate, 56 compounds were tested, in triplicate, along with three negative controls (DMSO only), three positive controls (500 nM dT20), and two wells with no enzyme. Fluorescence was read before ATP (F0) addition and 30 minutes after ATP was added to 1 mM (F30) using a Tecan Infinite M200 fluorescence microplate reader with excitation and emission wavelengths set to 643 and 670 nm, respectively. Percent inhibition was calculated with equation 1, and compound interference in the MBHA was calculated with equation 2.
To monitor helicase reaction kinetics and to calculate IC50 values, MBHAs were performed in 60 μL in white ½ area 96-well plates and measured in a Thermo Varioscan Multimode reader (Thermo Scientific) using the 643 nm excitation wavelength and 667 emission wavelengths. Reactions were again performed by first incubating all components except for ATP for two minutes, then initiated by injecting in 1/10 volume of ATP such that the final concentration of all components was as noted above. Conditions were as described above except that 5% v/v DMSO was present in each assay. Initial reaction velocities were calculated by fitting first-order decay equation to data obtained after ATP addition and calculating an initial velocity form the resulting amplitude and rate constant.
[formula] where, v0 is the velocity observed in DMSO-only controls inhibition, h is the Hillslope coefficient, [I] is the concentration of test compound.

[5] = target: T3, E. coli SSB-Cy5-dT15 complex (Escherichia coli, UniProt P0AGE0); assay: Escherichia coli SSB Cy5-dT15 binding assay (fluorescence polarization); conditions: disruption of Cy5-dT15-SSB complex; read-out: Cy5-dT15-SSB Binding IC50
T3 construct: purchased Promega
Method: The Escherichia coli SSB assay was performed in a total volume of 20.2 μl in 384-well, flat-bottom, low volume, black microplates (Greiner Bio-One). First, 20 μl of a assay solution (5 nM Cy5-[…]-3′ (Cy5-dT15, SEQ ID NO:5), 20 nM E. coli SSB (Promega), 25 mM MOPS, pH 7.5, 1.25 mM MgCl2, 0.0025 mg/ml BSA, 0.005% (v/v) TWEEN 20 and 0.025 mM DTT) was dispensed in each well, then 0.2 μl of dimethylsulfoxide (DMSO) or compound dissolved in DMSO was added by pin transfer, such that the final concentration of DMSO was 1% (v/v) in each assay.
For IC50 determination, assays were performed with 60 μl total volume in black flat bottomed 384-well microplates (Corning). First, 3.0 μl of DMSO or compound dissolved in DMSO was added, such that the final concentration of DMSO was 5% (v/v) in each assay. Then 57 μl of a assay solution (5 nM Cy5-dT15, 20 nM SSB, 25 mM MOPS, pH 7.5, 1.25 mM MgCl2, 0.0025 mg/ml BSA, 0.005% (v/v) TWEEN 20 and 0.025 mM DTT) was dispensed in each well. Polarization was monitored with a TECAN Infinite M1000 PRO multi-mode microplate reader by exciting at 635 nm (5 nm bandwidth) and measuring total fluorescence intensity, parallel and perpendicular polarized light at 667 nm (20 nm bandwidth).

[6] = MBHA with DNA substrate, assay interference calculated with Equation 2
[7] = assay interference calculated with Equation 2 (fluorescence vs DMSO-only controls before ATP)
[8] = MBHA, DNA unwinding, mean ± SD of three titrations, read-out: Helicase IC50
[9] = standard HCV helicase MBHA (Table 9), read-out: DNA Unwinding IC50

T1 sequence (Q9WMX2 1192-1657): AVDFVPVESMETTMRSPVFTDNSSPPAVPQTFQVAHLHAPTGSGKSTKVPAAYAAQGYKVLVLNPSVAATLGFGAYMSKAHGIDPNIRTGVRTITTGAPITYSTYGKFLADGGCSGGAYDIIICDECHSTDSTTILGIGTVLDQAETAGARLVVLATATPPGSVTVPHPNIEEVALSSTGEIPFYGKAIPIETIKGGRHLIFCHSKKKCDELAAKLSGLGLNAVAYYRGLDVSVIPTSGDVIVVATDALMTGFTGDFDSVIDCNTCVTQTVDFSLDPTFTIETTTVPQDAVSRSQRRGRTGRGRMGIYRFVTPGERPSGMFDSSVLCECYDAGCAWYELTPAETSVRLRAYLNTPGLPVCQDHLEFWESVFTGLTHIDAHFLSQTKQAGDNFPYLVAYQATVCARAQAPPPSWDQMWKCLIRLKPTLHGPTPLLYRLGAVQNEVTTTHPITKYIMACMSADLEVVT
T3 sequence (P0AGE0 2-178, one chain of several): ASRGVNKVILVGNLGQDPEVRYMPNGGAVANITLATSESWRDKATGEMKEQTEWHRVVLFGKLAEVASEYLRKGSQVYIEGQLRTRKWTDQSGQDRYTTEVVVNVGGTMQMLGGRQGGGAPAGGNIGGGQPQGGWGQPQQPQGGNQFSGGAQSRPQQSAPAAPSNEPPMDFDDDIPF
T2 sequence (Q9WMX2 1192-1657): as the sequence (Q9WMX2 1192-1657) above

N=C(N)c1ccc(N=NNc2ccc(C(=N)N)cc2)cc1 [Berenil, reference compound]
IC50 ([1]; ethidium bromide FID, read-out: IC50 in FID assays (positive control)): 1.6 ± 0.1 µM

CCCCCC(/C=C/[C@@H]1CC(=O)C[C@H]1O[Si](C)(C)C(C)(C)C)OCOCCOC (stereo partly drawn) [Compound 689228]
Int.* (Ratio) (Interference) [2, 6]: 1.04 Ratio | Inh. (%) (Inhibition) ([2]; MBHA with DNA substrate): −10.4%

O=C(OCC12CC3CC(CC(C3)C1)C2)c1ccc(NCc2cc(O)ccc2O)cc1 [Compound 689857]
Inh. (%) (Inhibition) ([2]; MBHA with a DNA substrate): −22.3% | Int.* (Ratio) (Interference) [2, 7]: 0.87 Ratio

COc1ccc2nc3cc([N+](=O)[O-])ccc3c(NNc3ccccc3)c2c1 [Compound 689872]
Int.* (Ratio) (Interference) [2, 6]: 1.01 Ratio | Inh. (%) (Inhibition) ([2]; MBHA with DNA substrate): −2.4%

O=[N+]([O-])c1cccc2nc3ccccc3c(NCCCNc3c4ccccc4nc4cccc([N+](=O)[O-])c34)c12 [Compound 690634]
Int.* (Ratio) (Interference) [2, 6]: 0.82 Ratio | Inh. (%) (Inhibition) ([2]; MBHA with DNA substrate): −10.3%

CCOC(=O)c1ccc(-c2cc(C)no2)[nH]1 [Compound 693053]
Int.* (Ratio) (Interference) [2, 6]: 0.93 Ratio | Inh. (%) (Inhibition) ([2]; MBHA with DNA substrate): −18.5%

C/C(=N\Nc1nc2ccccc2s1)c1ccncn1 [Compound 693632]
Inh. (%) (Inhibition) ([2]; MBHA with a DNA substrate): −26.4% | Int.* (Ratio) (Interference) [2, 7]: 0.98 Ratio

CON(C)C(=O)C1CCCO1 (stereo not drawn) [Compound 695218]
Int.* (Ratio) (Interference) [2, 6]: 0.99 Ratio | Inh. (%) (Inhibition) ([2]; MBHA with DNA substrate): 13.3%

CN(C)CC1CCC/C(=C\c2ccc(OC(=O)/C=C/c3ccccc3)cc2)C1=O.Cl (stereo not drawn) [Compound 697443]
Inh. (%) (Inhibition) ([2]; MBHA with a DNA substrate): 11.6% | Int.* (Ratio) (Interference) [2, 7]: 1.01 Ratio

CC(=O)NC1C(OCc2ccccc2)OC(CO)C(O)C1OC(C)C(=O)NC(C(=O)NC(CCC(=O)NCCCCNc1c2ccccc2nc2cccc([N+](=O)[O-])c12)C(N)=O)C(C)C (stereo not drawn) [Compound 697468]
Inh. (%) (Inhibition) ([2]; MBHA with a DNA substrate): −23.8% | Int.* (Ratio) (Interference) [2, 7]: 0.97 Ratio

CC1=C(N2CC2)C(=O)C(CO)=C(N2CC2)C1=O [Compound 697726]
Inh. (%) (Inhibition) ([2]; MBHA with a DNA substrate): −5.6% | Int.* (Ratio) (Interference) [2, 7]: 0.90 Ratio

Cc1ccc(S(=O)(=O)c2ccc([N+](=O)[O-])o2)cc1 [Compound 697923]
Int.* (Ratio) (Interference) [2, 6]: 1.07 Ratio | Inh. (%) (Inhibition) ([2]; MBHA with DNA substrate): −14.4%

Cc1nnc(-n2c(O)cc(=O)n(-c3ccccc3)c2=S)nc1/C=C/c1ccc(N(C)C)cc1 [Compound 698031]
Int.* (Ratio) (Interference) [2, 6]: 0.98 Ratio | Inh. (%) (Inhibition) ([2]; MBHA with DNA substrate): −16.0%

CN(C)c1ccc(C=c2c3ccccc3n3c2cc(-c2ccc(Cl)cc2)[n+]3C)cc1.O=S(=O)([O-])C(F)(F)F [Compound 699479]
Int.* (Ratio) (Interference) [2, 6]: 0.38 Ratio | Inh. (%) (Inhibition) ([2]; MBHA with DNA substrate): 45.1%

CCCCn1c2c(n(CCCC)c1=S)-c1c(n(CCCC)c(=S)n1CCCC)SSSS2 [Compound 700582]
Int.* (Ratio) (Interference) [2, 6]: 0.93 Ratio | Inh. (%) (Inhibition) ([2]; MBHA with DNA substrate): −16.2%

CCN(CC)c1ccc(-c2nc3ccc(C)c(S(=O)(=O)O)c3s2)cc1 [Compound T1, 2-(4-(diethylamino)phenyl)-6-methylbenzo[d]thiazole-7-sulfonic acid]
EC50 [1]: > 100 µM | IC50 [3]: > 100 µM | IC50 [4, 8]: 33 ± 24 µM | IC50 [4, 9]: 33 ± 24 µM | IC50 [5]: 7 ± 2 µM

CCN(CC)c1ccc(-c2nc3ccc(-c4nc5ccc(C)c(S(=O)(=O)O)c5s4)cc3s2)cc1 [Compound T2, 2′-(4-(diethylamino)phenyl)-6-methyl-[2,6′-bibenzo[d]thiazole]-7-sulfonic acid]
EC50 [1]: > 100 µM | IC50 [4, 8]: 26 ± 21 µM | IC50 [4, 9]: 5 ± 2 µM | IC50 [5]: 2 µM

Cc1c2ccncc2c(C)c2c1[nH]c1ccccc12 [ellipticine, reference compound]
IC50 [4, 8]: 5.6 ± 0.8 µM

Source: US9464064B2, “HCV helicase inhibitors and methods of use thereof” (University of Kansas, priority 2011, dated 2016)
